# Data from ChEMBL document CHEMBL4825698, “Identification of novel benzothiopyranones with ester and amide motifs derived from active metabolite as promising leads against Mycobacterium tuberculosis” (Eur J Med Chem, 2021).
# What was measured:
# [1] = Metabolic stability in pooled mouse hepatocytes assessed as parent compound remaining after 30 mins; type: ADME, cell-based, Hepatocyte; details: read-out: Stabilty
# [2] = Solubility of the compound in water measured after 20 mins by HPLC analysis; type: physicochemical
# [3] = Metabolic Stability in pooled human hepatocytes assessed as parent compound remaining after 30 mins; type: ADME, cell-based, Hepatocyte; details: read-out: Stabilty
# [4] = system: Mycobacterium tuberculosis; assay: Antimycobacterial activity against Mycobacterium tuberculosis H37Rv assessed as bacterial growth inhibition incubated for 7 days by MABA assay; type: functional; details: 168 h, time 7 day
# [5] = Metabolic stability in pooled mouse hepatocytes assessed as half life; type: ADME, cell-based, Hepatocyte
# [6] = Metabolic stability in pooled human hepatocytes assessed as half life; type: ADME, cell-based, Hepatocyte
# Vero = assay: Cytotoxicity against African green monkey Vero cells assessed as reduction in cell viability after 48 hrs by MTT assay; type: cell-based; details: Chlorocebus sabaeus
# [7] = system: Mycobacterium tuberculosis; assay: (§1) Antimycobacterial activity against Mycobacterium tuberculosis H37Rv infected in BALB/c mouse model of acute tuberculosis infection assessed as log change in bacterial burden in mouse lung at 100 mg/kg, po via gavage administered for 3 weeks starting from day 10 post infection and administered 5 times a week (reference value: 4.94 +/-0.06 1og10CFU); type: functional
# [8] = Toxicity in BALB/c mouse infected with Mycobacterium tuberculosis H37Rv assessed as body weight at 100 mg/kg, po via gavage administered for 3 weeks starting from day 10 post infection and administered 5 times a week (reference value: 24.59 +/- 0.61 g); type: organism-based; details: in vivo, 504 h
# [9] = Toxicity in BALB/c mouse infected with Mycobacterium tuberculosis H37Rv assessed as body weight at 25 mg/kg, po via gavage administered for 3 weeks starting from day 10 post infection and administered 5 times a week (reference value: 24.59 +/- 0.61 g); type: organism-based; details: in vivo, 504 h
# [10] = system: Mycobacterium tuberculosis; assay: as §1, with “25” for “100”, “4.94=+/-0.06” for “4.94 +/-0.06”; type: functional
SMILES,remaining at 0.5 h [1] [%],remaining at 0.5 h [3] [%],MIC [4] [µg/mL],half-life [5] [min],half-life [6] [min],IC50 (Vero) [µg/mL],other results
O=c1cc(N2CCN(CC3CCCCC3)CC2)sc2c([N+](=O)[O-])cc(C(F)(F)F)cc12,80.6,82.4,< 0.016,–,–,–,solubility at 20 min [2]: < 0.1 µg/mL
O=C(OC1CCC(CN2CCN(c3cc(=O)c4cc(C(F)(F)F)cc([N+](=O)[O-])c4s3)CC2)CC1)c1ccccc1 (centres undefined),68.1,56.4,< 0.016,54.2,36.2,> 64,–
O=C(OC1CCC(CN2CCN(c3cc(=O)c4cc(C(F)(F)F)cc([N+](=O)[O-])c4s3)CC2)CC1)c1ccc(C(F)(F)F)cc1 (centres undefined),28.8,5.2,< 0.016,16.7,7,> 64,–
O=c1cc(N2CCN(CC3CCC(NS(=O)(=O)c4ccccc4)CC3)CC2)sc2c([N+](=O)[O-])cc(C(F)(F)F)cc12 (centres undefined),95.3,90.8,0.107,> 93.2,> 93.2,> 64,–
COc1ccc(C(=O)OC2CCC(CN3CCN(c4cc(=O)c5cc(C(F)(F)F)cc([N+](=O)[O-])c5s4)CC3)CC2)cc1 (centres undefined),31,12.2,0.121,17.7,9.9,> 64,–
O=C(OC1CCC(CN2CCN(c3cc(=O)c4cc(C(F)(F)F)cc([N+](=O)[O-])c4s3)CC2)CC1)C1CCCCC1 (centres undefined),1.2,2.8,< 0.016,4.7,5.8,> 64,–
O=C(NC1CCC(CN2CCN(c3cc(=O)c4cc(C(F)(F)F)cc([N+](=O)[O-])c4s3)CC2)CC1)c1ccccc1 (centres undefined),90.6,92.9,0.244,> 93.2,> 93.2,44.3,–
CC(=O)NC1CCC(CN2CCN(c3cc(=O)c4cc(C(F)(F)F)cc([N+](=O)[O-])c4s3)CC2)CC1 (centres undefined),94.9,86.8,4.71,> 93.2,> 93.2,> 64,–
O=C(OC1CCC(CN2CCN(c3cc(=O)c4cc(C(F)(F)F)cc([N+](=O)[O-])c4s3)CC2)CC1)c1ccncc1 (centres undefined),1.4,1,< 0.016,4.9,4.5,> 64,–
CS(=O)(=O)OC1CCC(CN2CCN(c3cc(=O)c4cc(C(F)(F)F)cc([N+](=O)[O-])c4s3)CC2)CC1 (centres undefined),–,–,< 0.016,–,–,> 64,–
NC1CCC(CN2CCN(c3cc(=O)c4cc(C(F)(F)F)cc([N+](=O)[O-])c4s3)CC2)CC1 (centres undefined),107,83.6,0.49,–,–,–,solubility at 20 min [2]: 43.9 µg/mL
Cc1cccc(C(=O)OC2CCC(CN3CCN(c4cc(=O)c5cc(C(F)(F)F)cc([N+](=O)[O-])c5s4)CC3)CC2)c1 (centres undefined),–,–,< 0.016,–,–,> 64,–
C=CC(=O)OC1CCC(CN2CCN(c3cc(=O)c4cc(C(F)(F)F)cc([N+](=O)[O-])c4s3)CC2)CC1 (centres undefined),–,–,0.035,–,–,> 64,–
CC(=O)OC1CCC(CN2CCN(c3cc(=O)c4cc(C(F)(F)F)cc([N+](=O)[O-])c4s3)CC2)CC1 (centres undefined),0,0,< 0.016,< 9,< 9,> 64,–
O=C(OC1CCC(CN2CCN(c3cc(=O)c4cc(C(F)(F)F)cc([N+](=O)[O-])c4s3)CC2)CC1)c1cccc(F)c1 (centres undefined),–,–,< 0.016,–,–,> 64,–
O=C(OC1CCC(CN2CCN(c3cc(=O)c4cc(C(F)(F)F)cc([N+](=O)[O-])c4s3)CC2)CC1)c1ccc2c(c1)OCC2 (centres undefined),–,–,0.179,–,–,> 64,–
O=c1cc(N2CCN(CC3CCC(OS(=O)(=O)c4ccccc4)CC3)CC2)sc2c([N+](=O)[O-])cc(C(F)(F)F)cc12 (centres undefined),–,–,< 0.016,–,–,> 64,–
CCCC(=O)OC1CCC(CN2CCN(c3cc(=O)c4cc(C(F)(F)F)cc([N+](=O)[O-])c4s3)CC2)CC1 (centres undefined),–,–,< 0.016,–,–,> 64,–
CC(C)S(=O)(=O)OC1CCC(CN2CCN(c3cc(=O)c4cc(C(F)(F)F)cc([N+](=O)[O-])c4s3)CC2)CC1 (centres undefined),–,–,< 0.016,–,–,> 64,–
O=C(OC1CCC(CN2CCN(c3cc(=O)c4cc(C(F)(F)F)cc([N+](=O)[O-])c4s3)CC2)CC1)c1ccc2ccccc2c1 (centres undefined),–,–,0.03,–,–,> 64,–
O=C(OC1CCC(CN2CCN(c3cc(=O)c4cc(C(F)(F)F)cc([N+](=O)[O-])c4s3)CC2)CC1)c1ccc(F)cc1 (centres undefined),1.5,3,< 0.016,4.9,5.9,> 64,–

SMILES,remaining at 0.5 h [1] [%],remaining at 0.5 h [3] [%],MIC [4] [µg/mL],half-life [5] [min],half-life [6] [min],IC50 (Vero) [µg/mL],other results
Cc1ccc(C(=O)OC2CCC(CN3CCN(c4cc(=O)c5cc(C(F)(F)F)cc([N+](=O)[O-])c5s4)CC3)CC2)cc1 (centres undefined),18,9.7,0.031,12.1,8.9,> 64,–
O=c1cc(N2CCN(CC3CCC(OS(=O)(=O)c4ccc5ccccc5c4)CC3)CC2)sc2c([N+](=O)[O-])cc(C(F)(F)F)cc12 (centres undefined),–,–,< 0.016,–,–,> 64,–
CS(=O)(=O)NC1CCC(CN2CCN(c3cc(=O)c4cc(C(F)(F)F)cc([N+](=O)[O-])c4s3)CC2)CC1 (centres undefined),111,105,> 32,> 93.2,> 93.2,48.4,–
COc1ccccc1C(=O)OC1CCC(CN2CCN(c3cc(=O)c4cc(C(F)(F)F)cc([N+](=O)[O-])c4s3)CC2)CC1 (centres undefined),–,–,0.031,–,–,> 64,–
O=c1cc(N2CCN(CC3CCC(NP(=O)(Oc4ccccc4)Oc4ccccc4)CC3)CC2)sc2c([N+](=O)[O-])cc(C(F)(F)F)cc12 (centres undefined),66.1,74.1,0.076,50.2,69.2,> 64,–
CC(C)C(=O)OC1CCC(CN2CCN(c3cc(=O)c4cc(C(F)(F)F)cc([N+](=O)[O-])c4s3)CC2)CC1 (centres undefined),–,–,< 0.016,–,–,> 64,–
Nc1cc(C(F)(F)F)cc2c(=O)cc(N3CCN(CC4CCCCC4)CC3)sc12,69.4,0.9,12.7,–,–,–,–
O=C(OC1CCC(CN2CCN(c3cc(=O)c4cc(C(F)(F)F)cc([N+](=O)[O-])c4s3)CC2)CC1)c1cccc(C(F)(F)F)c1 (centres undefined),–,–,< 0.016,–,–,> 64,–
O=c1cc(N2CCN(CC3CCC(OS(=O)(=O)c4cccnc4)CC3)CC2)sc2c([N+](=O)[O-])cc(C(F)(F)F)cc12 (centres undefined),–,–,< 0.016,–,–,> 64,–
O=c1cc(N2CCN(CC3CCC(OS(=O)(=O)c4ccc5c(c4)CCO5)CC3)CC2)sc2c([N+](=O)[O-])cc(C(F)(F)F)cc12 (centres undefined),–,–,< 0.016,–,–,> 64,–
O=C(OC1CCC(CN2CCN(c3cc(=O)c4cc(C(F)(F)F)cc([N+](=O)[O-])c4s3)CC2)CC1)c1cccs1 (centres undefined),1.8,2.2,< 0.016,5.2,5.5,> 64,–
COc1cccc(C(=O)OC2CCC(CN3CCN(c4cc(=O)c5cc(C(F)(F)F)cc([N+](=O)[O-])c5s4)CC3)CC2)c1 (centres undefined),–,–,< 0.016,–,–,> 64,–
Nc1cc(C(F)(F)F)cc2c(=O)cc(N3CCN(CC4CCC(O)CC4)CC3)sc12 (centres undefined),60,72.9,> 32,–,–,–,–
O=C(OC1CCC(CN2CCN(c3cc(=O)c4cc(C(F)(F)F)cc([N+](=O)[O-])c4s3)CC2)CC1)c1ccco1 (centres undefined),0.6,1,< 0.016,< 4.5,4.5,> 64,–
O=c1cc(N2CCN(CC3CCCCC3)CC2)sc2c(NO)cc(C(F)(F)F)cc12,47.8,19.1,0.244,–,–,–,–
COP(=O)(NC1CCC(CN2CCN(c3cc(=O)c4cc(C(F)(F)F)cc([N+](=O)[O-])c4s3)CC2)CC1)OC (centres undefined),–,–,3.15,–,–,> 64,–
O=C(OC1CCC(CN2CCN(c3cc(=O)c4cc(C(F)(F)F)cc([N+](=O)[O-])c4s3)CC2)CC1)C1CCC1 (centres undefined),–,–,0.028,–,–,> 64,–
O=c1cc(N2CCN(CC3CCC(O)CC3)CC2)sc2c([N+](=O)[O-])cc(C(F)(F)F)cc12 (centres undefined),51.2,72.7,0.069,–,–,–,Activity [7]: 4.06 log10CFU; Activity [8]: 24.75 g; solubility at 20 min [2]: 8.3 µg/mL
NNC(=O)c1ccncc1 [ISONIAZID],–,–,0.039,–,–,–,Activity [9]: 24.66 g; Activity [10]: 130 log10CFU
CO[C@H]1/C=C/O[C@@]2(C)Oc3c(C)c(O)c4c(O)c(c(/C=N/N5CCN(C)CC5)c(O)c4c3C2=O)NC(=O)/C(C)=C\C=C\[C@H](C)[C@H](O)[C@@H](C)[C@@H](O)[C@@H](C)[C@H](OC(C)=O)[C@@H]1C [RIFAMPIN],–,–,0.025,–,–,> 64,–
